Usually IC50 stands for the point on the concentration scale where inhibition reaches its midpoint.

The structures appear in SMILES notation. Like-named read-outs stand apart in the source and are kept apart here.

Experiment [1] deals with T1, GDP-loaded HIS-KRAS (G12D, aa 1-169) (Homo sapiens, UniProt P01116, G12D).
T1 construct: GDP-loaded HIS-KRAS (G12D, aa 1-169)
Nature of the experiment: SOS1 catalyzed nucleotide exchange assay. The experiment is classed as biochemical. The conditions noted are these: SOS1 ExD, TR-FRET, 4 hours at 25° C. Put shortly: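 Compound was preincubated 15 min with 1.5 nM GDP-loaded KRAS G12D (final 5 nM GDP). SOS1 ExD (aa 564-1049, 0.5 µM), 80 nM BODIPY FL GTP and anti-His Tb antibody were then added for 4 h at 25 °C. The TR-FRET 515/486 ratio was normalized between DMSO and no-KRAS wells, and IC50 came from 4-parameter fits.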
(In general: In TR-FRET formats the signal depends on donor and acceptor labels being close together.)

Experiment [2] concerns the target T2, GppNp-loaded HIS-KRAS (G12D, aa 1-169) / cRAF RBD (Homo sapiens, UniProt P01116, G12D).
T2 construct: GppNp-loaded HIS-KRAS (G12D, aa 1-169)
In words: GTP-KRAS and cRAF interaction assay. It counts as binding. The conditions noted are these: HTRF, 2 hours at 25° C. Put shortly:
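GppNp-loaded KRAS G12D (2.0 nM) preincubated 15 min with compound, then cRAF RBD (35 nM) and HTRF antibodies added for 2 h at 25° C with 100 μM GTP final. Ratios normalized to DMSO and no-KRAS controls; IC50 by 4-parameter fit.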

In experiment [3] the test system is AGS cells expressing KRAS G12D. Nature of the experiment: Phospho-ERK1/2(THR202/TYR204) HTRF assay. The conditions noted are these: 2 hours incubation, read-out: AGS p-ERK IC50. The experiment is classed as cell-based. Put shortly: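 Cells seeded 40,000/well, incubated overnight, then treated with compound in F12K with 0.1% FBS for 2 h at 37 °C. Lysates assayed for phospho-ERK1/2 by HTRF after 4 h at 25 °C; IC50 from 4-parameter logistic fit.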

Experiment [4] relates to AGS. In words: Cell growth inhibition assay (AGS). The experiment is classed as cell-based. The conditions noted are these: 6 days incubation, CellTiter-Glo. As to the method:
4. Cell Growth Inhibition Assay
AGS cultured in F12K medium (Gibco) containing 10% fetal bovine serum (Gibco). Cells in culture medium were plated in 96-well plates at a concentration of 500 cells/well ([…]) and allowed to attach overnight.
The next day, compounds were diluted in culture medium and added to the plates. After 6 days incubation in a 37° C./5% CO2 cell incubator, the cell viability was detected by CellTiter-Glo® Luminescent Cell Viability Assay kit (Promega). Luminescent signals were read on Tecan Spark multimode microplate reader and analyzed using a 4-parameter logistic model to calculate IC50 values.

The subject of experiment [5] is AsPC-1. In words: Cell growth inhibition assay (AsPC-1). It counts as cell-based. The following applies: AsPC-1, 6 days incubation, CellTiter-Glo. The procedure, abridged: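 AsPC-1 cells seeded at 1000 cells/well in RPMI-1640 with 10% FBS, attached overnight, then exposed to compound dilutions for 6 days at 37 °C/5% CO2. Viability read by CellTiter-Glo luminescence; IC50 from a 4-parameter logistic fit.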

T1 sequence (P01116 1-169 isoform P01116-2 G12D): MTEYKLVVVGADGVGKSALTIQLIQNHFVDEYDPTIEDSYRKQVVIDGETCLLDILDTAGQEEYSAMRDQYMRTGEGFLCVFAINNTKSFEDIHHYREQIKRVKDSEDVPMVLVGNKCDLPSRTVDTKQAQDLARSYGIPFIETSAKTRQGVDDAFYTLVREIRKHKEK
T2 sequence (P01116 1-169 isoform P01116-2 G12D): as above

Consider `C#Cc1cccc2cc(O)cc(-c3ccc4c(N5CC6CCC(C5)N6)nc(OCC5(CN6CCO[C@H](C)C6)CC5)nc4c3F)c12` [Compound 68], for which the IC50 came out at 0.0144 µM in experiment [1]; 0.131 µM in experiment [2]; 0.00483 µM in experiment [3] (Homo sapiens); 0.00326 µM in experiment [4] (Homo sapiens, 144 h); 0.0078 µM in experiment [5] (Homo sapiens, ASPC1, 144 h).
Take `C#Cc1c(F)ccc2cc(O)cc(-c3c(C(C)C)cc4c(N5CC6CCC(C5)N6)nc(OCC5(CN6CCOCC6)CC5)nc4c3F)c12` [Compound 106]: the IC50 in experiment [1] is 0.000332 µM; in experiment [2], 0.0013 µM; in experiment [3] (Homo sapiens), 0.0086 µM; in experiment [4] (Homo sapiens, 144 h), 0.0018 µM; in experiment [5] (Homo sapiens, ASPC1, 144 h) it was 0.0128 µM.
With `C#Cc1cccc2cc(O)cc(-c3c(C4CC4)cc4c(N5CC6CCC(C5)N6)nc(OCC5(CN6CCOCC6)CC5)nc4c3F)c12` (single isomer, unassigned) [Compound 38B], the IC50 is 0.000727 µM in experiment [1]; 0.0132 µM in experiment [2]; 0.0124 µM in experiment [3]; 0.0105 µM in experiment [4]; 0.158 µM in experiment [5].
Regarding `C#Cc1cccc2cc(O)cc(-c3ccc4c(N5CC6CC(C5)N6)nc(OCC5(CN6CCOCC6)CC5)nc4c3F)c12` [Compound 55], the IC50 amounted to 0.0116 µM in experiment [1]; 0.147 µM in experiment [2]; 0.0275 µM in experiment [3] (Homo sapiens); 0.0769 µM in experiment [4] (Homo sapiens, 144 h); 0.649 µM in experiment [5] (Homo sapiens, ASPC1, 144 h).
The corresponding values for `C#Cc1cccc2cc(O)cc(-c3c(C4CC4)cc4c(N5CC6CCC(C5)N6)nc(OCC5(CN6CCOCC6)CC5)nc4c3F)c12` [Compound 38] are 0.0138 µM, 0.126 µM, 0.0198 µM, 0.051 µM and 0.141 µM.
As for `C#Cc1cccc2cc(O)cc(-c3cc4nc(OC[C@@]56CCCN5C[C@H](F)C6)nc(N5CC6CCC(C5)N6)c4cc3F)c12` [Compound 79], the IC50 turned out to be 0.00481 µM in experiment [1]; 0.13 µM in experiment [2]; 0.00666 µM in experiment [3] (Homo sapiens); 0.00775 µM in experiment [4] (Homo sapiens, 144 h); 0.109 µM in experiment [5] (Homo sapiens, ASPC1, 144 h).
In the same order, the values of `Oc1cc(Cl)c(C2CC2)c(-c2c(Cl)cc3c(N4CC5CCC(C4)N5)nc(OCC4(CN5CCOCC5)CC4)nc3c2F)c1` [Compound 133] are 0.00782 µM, 0.688 µM, 0.456 µM, 0.14 µM and 0.714 µM.
Consider `C#Cc1cccc2cc(O)cc(-c3ccc4c(N5CC6CCC(C5)N6)nc(OC[C@@]56CCCN5C[C@H](F)C6)nc4c3Cl)c12` [Compound 81], for which the IC50 stood at 0.00949 µM in experiment [1]; 0.225 µM in experiment [2]; 0.0139 µM in experiment [3] (Homo sapiens); 0.0162 µM in experiment [4] (Homo sapiens, 144 h); 0.153 µM in experiment [5] (Homo sapiens, ASPC1, 144 h).
The corresponding values for `Oc1cc(-c2ccc3c(N4CC5CCC(C4)N5)nc(OCC4(CN5CCOCC5)CC4)nc3c2F)c2c(Cl)cccc2c1` [Compound 88] are 0.0167 µM, 0.148 µM, 0.0357 µM, 0.017 µM and 0.153 µM.
The corresponding values for `C#Cc1cccc2cc(O)cc(-c3c(Cl)cc4c(N5CC6CCC(C5)N6)nc(OCC5(CN6CCOCC6)CC5)nc4c3F)c12` [Compound 35] are 0.0104 µM, 0.113 µM, 0.0322 µM, 0.00858 µM and 0.0993 µM.
On to `C#Cc1c(F)ccc2cc(O)cc(-c3ccc4c(N5CC6CCC(C5)N6)nc(OCC5(CN6CCCC(F)C6)CC5)nc4c3F)c12` (stereo not drawn) [Compound 74], for which the IC50 was 0.01 µM in experiment [1]; 0.0398 µM in experiment [2]; 0.0124 µM in experiment [3] (Homo sapiens); 0.00441 µM in experiment [4] (Homo sapiens, 144 h); 0.0213 µM in experiment [5] (Homo sapiens, ASPC1, 144 h).
`C#Cc1cccc2cc(O)cc(-c3ccc4c(N5CC6CCC(C5)N6)nc(OCC5(CN6CCC[C@H](F)C6)CC5)nc4c3F)c12` [Compound 113]: the IC50 in experiment [1] worked out at 0.0126 µM; in experiment [2] it was 0.124 µM; in experiment [3], 0.0159 µM; in experiment [4], 0.00435 µM; in experiment [5] it was 0.0184 µM.
